Key:
[1] = Pharmacokinetic study of oritavancin-loaded PNPs in rat osteomyelitis model (plasma and tibia, LC-MS/MS); format: in vivo; details: osteomyelitis rats, 6 mg/kg intravenous
Text: A rat model of bacterial osteomyelitis of the tibia was generated via intraosseous injection of MRSA ATCC 43300 at a target challenge dose of 7 log10 CFU of the bacteria per rat. Briefly, rats were anaesthetized by isoflurane and the infection was initiated via injection of the bacteria through the upper condyle of the right tibia into the cancellous bone marrow of a rat. The inoculation was made on the anterior surface of the tibia. The area was located by running a ½ inch 27-gauge needle against the skin, along the anterior crest of the tibia. The needle slipped over the tip of the tuberosity, which was located between the medial and lateral condyles. A rough depression could be felt with the tip of the needle. The patella tendon (silver in color) connected at this point. Once identified, the needle was pushed into the metaphysis using slight pressure and rotating motion. The needle was removed and replaced with a new ½ inch 27 gauge needle, and 30 μL of bacteria was inoculated into the bone marrow cavity. The needle was removed and the animal was allowed to recover from anesthesia.
Three weeks (21 days) after the initiation of the bacterial infection, the osteomyelitis rats were divided into three treatment groups, with five rats in each group. […] The concentrations of oritavancin in the plasma and tibia samples were quantified using LC-MS/MS.

[2] = Drug loading and encapsulation efficiency of drug loaded PNPs comprising pGlu(0.6C10)-PEG (HPLC); format: physicochemical; details: 5 mg drug
Text: To assess the ability of pGlu(0.6C10)-PEG to load positively charged antibiotics in the form of PNPs, we selected vancomycin and RV94 as the antibiotic drug payload in a first study (study 1) (Table 5), and additionally included oritavancin and RV40 as the antibiotic drug payload in a second study (study 2) (Table 6). The polymers we used for loading and encapsulating the antibiotics were PLA-PEG (A) (Nanosoft Polymers, SKU: 2693), pGlu-PEG (B) (Nanosoft Polymers, SKU: 2917), and pGlu(0.6C10)-PEG (C) (FIG. 10).
We prepared the drug loaded PNPs by using 20 mg of polymers and 5 mg of drug (FIG. 10). Specifically, polymers (20 mg) and drug (5 mg) were dissolve in 1 ml organic solvent mixture (DMSO: acetonitrile=1:1). The solution was injected into 20 ml deionized water stirred with a magnetic stirring bar. The nanoparticles were washed using Amicon filter (100k cut-off) twice and resuspended in deionized water. Drug loading in nanoparticle formulation was determined by HPLC with a WATERS™ T3 column. Acetonitrile/water was used as the mobile phase, and the wavelength of the UV detector was set at 281 nm.
Drug loading is equal to mass of drug (mg) after wash/(mass of drug (mg) after wash+mass of polymer input (i.e., 20 mg))*100%.
EE is equal to mass of drug (mg) after wash/mass of drug input (i.e., 5 mg)*100%.

[3] = Drug loading and encapsulation efficiency of drug loaded PNPs comprising pGlu(0.6C10) (HPLC); format: physicochemical; details: 2.5 mg drug
Text: To assess the ability of pGlu(0.6C10) to load positively charged antibiotics in the form of PNPs, we selected vancomycin, oritavancin, RV40 and RV94 as the drug payload. Vancomycin was chosen as a non-lipoglycopeptide control and the other three payloads were lipoglycopeptides. The polymers we used for loading and encapsulating the antibiotics were PLA(10K)-PEG(2K) (A) obtained from Nanosoft Polymers (Winston-Salem, NC, USA; SKU: 2693), pGlu (D) also obtained from Nanosoft Polymers (SKU: 10069), and pGlu(0.6C10) (E) (FIG. 4).
We prepared the drug loaded PNPs by using 10 mg of polymers and 2.5 mg of drug (FIG. 4). Specifically, polymers (10 mg) and drug (2.5 mg) were dissolved in 1.2 ml organic solvent mixture (DMSO: acetonitrile=0.5:0.7). The solution was injected into 10 ml deionized water stirred with a magnetic stirring bar. 1.1 ml 10×PBS solution was added to suspend nanoparticles in 1×PBS solution. The nanoparticles were washed using Amicon filter (100k cut-off) twice and resuspended in PBS. Drug loading in nanoparticle formulation was determined by HPLC with a WATERS™ T3 column. Acetonitrile/water was used as the mobile phase, and the wavelength of the UV detector was set at 281 nm.
EE is equal to mass of drug (mg) after wash/mass of drug input (i.e., 2.5 mg) *100%. With EE calculated as such, an EE of over 100% may be obtained on certain occasions due to standard error within the analytical measurement and represents complete encapsulation (i.e., 100% EE).

[4] = study 2, PLA-PEG (A) 10 mg + pGlu(0.6C10)-PEG (C) 10 mg
[5] = study 2, PLA-PEG (A) 10 mg + pGlu-PEG (B) 10 mg
[6] = PNP with PLA-PEG (A) 5 mg + pGlu (D) 5 mg
[7] = PNP with PLA-PEG (A) 5 mg + pGlu(0.6C10) (E) 5 mg
[8] = PNP with PLA-PEG (A) as only polymer, 10 mg polymer
[9] = drug payload only, no polymer (N/A)
[10] = study 1, PLA-PEG (A) 10 mg + pGlu(0.6C10)-PEG (C) 10 mg
[11] = study 1, PLA-PEG (A) 10 mg + pGlu-PEG (B) 10 mg
[12] = study 1, PLA-PEG (A) 20 mg only

| Structure (SMILES) | Drug loading [2, 4] | Encapsulation efficiency (EE) [2, 4] | Drug loading [2, 5] | Encapsulation efficiency (EE) [2, 5] | Drug loading [3, 6] | Encapsulation efficiency (EE) [3, 6] | Drug loading [3, 7] | Encapsulation efficiency (EE) [3, 7] | Drug loading [3, 8] | Encapsulation efficiency (EE) [3, 8] | Drug loading [3, 9] | Encapsulation efficiency (EE) [3, 9] | Drug loading [2, 10] | Encapsulation efficiency (EE) [2, 10] | Drug loading [2, 11] | Encapsulation efficiency (EE) [2, 11] | Drug loading [2, 12] | Encapsulation efficiency (EE) [2, 12] | also measured |
| --- | --- | --- | --- | --- | --- | --- | --- | --- | --- | --- | --- | --- | --- | --- | --- | --- | --- | --- | --- |
| CN[C@H](CC(C)C)C(=O)N[C@H]1C(=O)N[C@@H](CC(N)=O)C(=O)N[C@H]2C(=O)N[C@H]3C(=O)N[C@H](C(=O)N[C@H](C(=O)O)c4cc(O)cc(O)c4-c4cc3ccc4O)[C@H](O[C@H]3C[C@](C)(N)[C@@H](O)[C@H](C)O3)c3ccc(c(Cl)c3)Oc3cc2cc(c3O[C@@H]2O[C@H](CO)[C@@H](O)[C@H](O)[C@H]2O[C@H]2C[C@](C)(NCc3ccc(-c4ccc(Cl)cc4)cc3)[C@@H](O)[C@H](C)O2)Oc2ccc(cc2Cl)[C@H]1O [Ori, oritavancin] | 13.4% | 68.1% | 10.6% | 41.0% | 8.7% | 39.3% | 12.3% | 60.6% | 2.3% | 9.8% | 0.0% | 0.0% |  |  |  |  |  |  | Accumulation of oritavancin in infected tibia compared to uninfected tibia ([1]; 24 h post-injection): preferential accumulation of oritavancin in the infected tibia; Plasma concentrations of oritavancin ([1]; up to 4 hours post-injection): comparable and lower plasma concentrations of oritavancin; Encapsulation efficiency (EE) ([3]; PNP with PLA-PEG (A) 5 mg + pGlu (D) 5 mg, listed as oritavancin): 39.3%; Encapsulation efficiency (EE) ([3]; PNP with PLA-PEG (A) 5 mg + pGlu(0.6C10) (E) 5 mg, listed as oritavancin): 60.6%; Encapsulation efficiency (EE) ([3]; PNP with PLA-PEG (A) as only polymer, 10 mg polymer, listed as oritavancin): 9.8% |
| CCCCCCCCCCNCCNC1(C)CC(OC2C(Oc3c4cc5cc3Oc3ccc(cc3Cl)C(O)C(NC(=O)C(CC(C)C)NC)C(=O)NC(CC(N)=O)C(=O)NC5C(=O)NC3C(=O)NC(C(=O)CC(C(=O)O)c5cc(O)cc(O)c5-c5cc3ccc5O)C(O)c3ccc(c(Cl)c3)O4)OC(CO)C(O)C2O)OC(C)C1O (stereo not shown) [RV40] | 6.4% | 45.5% | 6.7% | 33.2% | 3.1% | 15.0% | 15.0% | 100.7% | 1.9% | 7.0% | 0.0% | 0.0% |  |  |  |  |  |  |  |
| CCCCCCCCCCNC(=O)CNC1(C)CC(OC2C(Oc3c4cc5cc3Oc3ccc(cc3Cl)C(O)C3NC(=O)C(NC(=O)C5NC(=O)C(CC(N)=O)NC(=O)C(NC(=O)C(CC(C)C)NC)C(O)c5ccc(c(Cl)c5)O4)c4ccc(O)c(c4)-c4c(O)cc(O)cc4C(C(=O)O)NC3=O)OC(CO)C(O)C2O)OC(C)C1O (stereo not shown) [RV94] | 17.5% | 92.7% | 13.2% | 59.8% | 3.5% | 12.9% | 20.9% | 107.2% | 2.8% | 10.4% | 1.3% | 4.2% | 16.7% | 88.4% | 13.6% | 70.1% | 0.9% | 4.0% |  |
| CN[C@H](CC(C)C)C(=O)N[C@H]1C(=O)N[C@@H](CC(N)=O)C(=O)N[C@H]2C(=O)N[C@H]3C(=O)N[C@H](C(=O)N[C@H](C(=O)O)c4cc(O)cc(O)c4-c4cc3ccc4O)[C@H](O)c3ccc(c(Cl)c3)Oc3cc2cc(c3O[C@@H]2O[C@H](CO)[C@@H](O)[C@H](O)[C@H]2O[C@H]2C[C@](C)(N)[C@H](O)[C@H](C)O2)Oc2ccc(cc2Cl)[C@H]1O [Vac, vancomycin] | 2.4% | 9.8% | 0.0% | 0.2% | 0.0% | 0.1% | 0.1% | 0.5% | 0.0% | 0.2% | 0.0% | 0.0% | 2.7% | 18.6% | 0.0% | 0.0% | 0.0% | 0.0% | Encapsulation efficiency (EE) ([2]; study 1, PLA-PEG (A) 10 mg + pGlu-PEG (B) 10 mg, listed as vancomycin): 0.0%; Encapsulation efficiency (EE) ([2]; study 1, PLA-PEG (A) 20 mg only, listed as vancomycin): 0.0%; Encapsulation efficiency (EE) ([3]; PNP with PLA-PEG (A) 5 mg + pGlu (D) 5 mg, listed as vancomycin): 0.1%; Encapsulation efficiency (EE) ([3]; PNP with PLA-PEG (A) 5 mg + pGlu(0.6C10) (E) 5 mg, listed as vancomycin): 0.5%; Encapsulation efficiency (EE) ([3]; PNP with PLA-PEG (A) as only polymer, 10 mg polymer, listed as vancomycin): 0.2% |
